Reference: ChEMBL document CHEMBL3882386, “Novel methods for identifying improved, non-sedating alpha-2 agonists” (2005)
Values belong to the compound of their own block, whether it stands above or below them. Calls of active or inactive are those of the source. The calls are words filed in the database; no cut-off is given here.

Experiments:
[1] = biological target: T1, Alpha-2A adrenergic receptor (Mus musculus, UniProt Q01338); assay: Binding affinity to mouse alpha-2A receptor expressed in COS7 cells; assay type: cell-based, COS-7
T1 sequence (Q01338 whole entry): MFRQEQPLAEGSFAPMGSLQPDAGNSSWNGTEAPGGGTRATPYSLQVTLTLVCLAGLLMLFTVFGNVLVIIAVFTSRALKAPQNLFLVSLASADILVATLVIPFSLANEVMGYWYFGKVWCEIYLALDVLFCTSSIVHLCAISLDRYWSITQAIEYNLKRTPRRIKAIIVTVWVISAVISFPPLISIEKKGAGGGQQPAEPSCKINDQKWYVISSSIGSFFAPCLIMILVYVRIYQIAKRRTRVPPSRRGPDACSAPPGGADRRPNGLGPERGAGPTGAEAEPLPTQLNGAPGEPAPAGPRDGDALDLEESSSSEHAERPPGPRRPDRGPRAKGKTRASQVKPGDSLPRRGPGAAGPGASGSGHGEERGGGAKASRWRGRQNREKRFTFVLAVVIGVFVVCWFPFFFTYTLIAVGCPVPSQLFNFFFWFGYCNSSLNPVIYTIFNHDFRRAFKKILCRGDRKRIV

[2] = biological target: T2, Alpha-2C adrenergic receptor (Mus musculus, UniProt Q01337); assay: Binding affinity to mouse alpha-2C receptor expressed in COS7 cells; assay type: cell-based, COS-7
T2 sequence (Q01337 whole entry): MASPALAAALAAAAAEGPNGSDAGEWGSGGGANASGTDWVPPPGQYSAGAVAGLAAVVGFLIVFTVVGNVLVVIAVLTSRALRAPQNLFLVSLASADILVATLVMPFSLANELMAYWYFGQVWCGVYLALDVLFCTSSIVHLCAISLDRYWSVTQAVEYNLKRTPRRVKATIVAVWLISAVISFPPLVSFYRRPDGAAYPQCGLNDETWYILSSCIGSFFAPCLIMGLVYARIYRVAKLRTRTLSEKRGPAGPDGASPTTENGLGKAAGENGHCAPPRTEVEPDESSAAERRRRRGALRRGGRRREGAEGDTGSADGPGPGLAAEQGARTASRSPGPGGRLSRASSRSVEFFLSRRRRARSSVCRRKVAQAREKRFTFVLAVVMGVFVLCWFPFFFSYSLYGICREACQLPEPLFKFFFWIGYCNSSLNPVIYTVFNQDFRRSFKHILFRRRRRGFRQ

[3] = system: Mus musculus; assay: Induction of sedation in C57BL/6 mouse at 0.1 to 1000 ug/kg, po; details: in vivo
[4] = system: Mus musculus; assay: Reduction in […]-induced tactile hypersensitivity in C57BL/6 mouse at 1 ug/kg, po relative to control; assay type: functional; design: scale not given: the % may be the effect or the level left
[5] = system: Mus musculus; assay: Induction of sedation in C57BL/6 mouse at 100 to 1000 ug/kg, ip relative to control; assay type: organism-based; details: in vivo
[6] = system: Mus musculus; assay: Induction of sedation in C57BL/6 mouse at 100 to 1000 ug/kg, po relative to control; assay type: organism-based; details: in vivo
[7] = system: Mus musculus; assay: Reduction in sulprostone-induced tactile hypersensitivity in C57BL/6 mouse at 0.1 to 1000 ug/kg, po; assay type: functional
[8] = system: Mus musculus; assay: Reduction in […]-induced tactile hypersensitivity in C57BL/6 mouse at 1 ug/kg, ip relative to control; assay type: functional; design: scale not given: the % may be the effect or the level left
[9] = system: Mus musculus; assay: Induction of sedation in C57BL/6 mouse at 100 ug/kg, ip relative to control; assay type: organism-based; details: in vivo, 0.1 mg/kg
[10] = system: Mus musculus; assay: Reduction in […]-induced tactile hypersensitivity in C57BL/6 mouse at 10 ug/kg, ip relative to control; assay type: functional; design: scale not given: the % may be the effect or the level left

- Ki [1]: 5.8 µM
- Ki [2]: 0.65 µM
Compound: NC[C@H](O)c1ccc(O)c(O)c1 [NOREPINEPHRINE]

Compound: Cc1cccc([C@H](C)c2c[nH]c(=S)[nH]2)c1C [REZATOMIDINE]
- Activity [3]: Non-Toxic
- Activity [4]: 50%
- Activity [5]: < 30%
- Activity [6]: < 30%
- Activity [7]: Active
- Activity [8]: 50%

Compound: OCC1=CCCC(Cc2c[nH]cn2)C1 (stereo not given)
- Activity [9]: < 30%
- Activity [10]: >50%
